These are literature values, as cited in US8470863B2, “Derivatives and analogs of chroman as functionally selective ALPHA2C adrenoreceptor agonists” (Merck Sharp & Dohme, Corp., priority 2007, dated 2013).

The subject of this series is Coloboma mice. Particulars: mice mutated to exhibit spontaneous hyperactivity; Bruno et al. 2006.

For the compound `COC(=O)[C@@H]1[C@H]2C[C@H]3c4[nH]c5ccccc5c4CCN3C[C@@H]2CC[C@@H]1O` [yohimbine], the “Effect on hyperactivity of Coloboma mice” value is on record as “ameliorated hyperactivity”.
